Data from patent publication US7625926B2, “P-glycoprotein inhibitor, method for preparing the same and pharmaceutical composition comprising the same” (Hanmi Pharm. Co., Ltd, priority 2003, dated 2009).

How the values were obtained:
[1] = In vivo absorption of orally administered paclitaxel; conditions: rats, oral 20 mg/kg paclitaxel with the compound (Control: with vehicle)
Procedure: In order to investigate the activity of the inventive compounds prepared in Examples, in vivo absorption tests were carried out as follows.
Blood samples were taken directly from the heart of each rat before and 1, 2, 4, 6, 8 and 24 hours after the administration.
Each of blood samples was centrifuged at 12,000 rpm to obtain a serum sample, 200 μl of which was mixed with 400 μl of acetonitrile (an internal standard) and the mixture was shaken to obtain an extract. The extract was centrifuged at 12,000 rpm, 4° C. for 5 min to obtain a supernatant.

[2] = tested on: MCF-7/Dox cell, which is MCF-7 expressing p-glycoprotein; conditions: enhancement of anticancer activity of paclitaxel against MCF7/Dox; ED50 of paclitaxel alone / ED50 with 50 nM test compound
Procedure: The cells were subcultured in 5% FBS (fetal bovine serum)/RPMI1640 medium supplemented with glutamine 2 mmol, sodium bicarbonate 3.7 g/L and gentamicin 10 mg/L at 37° C. in 5% CO2 incubator under 100% humidity, and collected using a 0.25% trypsin solution containing 3 mM 1,2-cyclohenxandiamine tetraacetic acid.
The collected cells were plated on a 96 well flat-bottomed plate at a density of 2×10^3 cells/well, and incubated in the same medium for 24 hours. Paclitaxel, an anticancer agent, was diluted with the same medium to obtain 10^−11˜10^−6 M test solutions. […] After incubating for 72 hours, the culture medium was removed, each well was treated with 10% trichloroacetic acid for 1 hour to fix the cells, washed with water, and dried at room temperature. After adding a dyeing solution containing 1% acetic acid with 0.4% SRB (sulforhodamine B) thereto, the wells were kept at room temperature for 30 min, and washed with 1% acetic acid to remove remaining SRB. […] Also, the enhancement of the anticancer activity of paclitaxel against MCF7/Dox (resistant cancer cells) was measured by determining ED^PAC50/ED50, wherein ED^PAC50 is the value determined for the case of paclitaxel alone.

Row | SMILES | AUC (ng · hr/ml), area under the curve of blood concentration till 24 hours [1] | Cmax (ng/ml), maximum blood concentration [1] | Tmax (hr), time at the maximum blood concentration [1] | ED50^PAC/ED50 [2]
1 | COc1cc2c(cc1OC)CN(CCc1ccc(-n3nnc(-c4cc(OC)c(OC)cc4NC(=O)c4cnc5ccccc5c4)n3)cc1)CC2 [Example 1, quinoline-3-carboxylic acid [2-(2-4-[2-(6,7-dimethoxy-3,4-dihydro-1H-isoquinolin-2-yl)-ethyl]-phenyl-2H-tetrazol-5-yl)-4,5-dimethoxy-phenyl]-amide] | 3,032 ± 1,108 ng · hr/ml | 1,172 ± 433 ng/ml | 1.0 h | 20.3
2 | COc1cc2c(cc1OC)CN(CCc1ccc(-n3nnc(-c4cc(OC)c(OC)cc4NC(=O)c4cc5ccccc5cn4)n3)cc1)CC2 [Example 3, isoquinoline-3-carboxylic acid [2-(2-{4-[2-(6,7-dimethoxy-3,4-dihydro-1H-isoquinolin-2-yl)-ethyl]-phenyl}-2H-tetrazol-5-yl)-4,5-dimethoxy-phenyl]-amide] |  |  |  | 3.5
3 | COc1ccc(CCN(C)CCc2ccc(-n3nnc(-c4cc(OC)c(OC)cc4NC(=O)c4cc(=O)c5ccccc5o4)n3)cc2)cc1OC [Example 33, 4-oxo-4H-chromene-2-carboxylic acid (2-{2-[4-(2-{[2-(3,4-dimethoxy-phenyl)-ethyl]-methyl-amino}-ethyl)-phenyl]-2H-tetrazol-5-yl}-4,5-dimethoxy-phenyl)-amide] |  |  |  | 23.0
4 | COc1cc2c(cc1OC)CN(CCc1ccc(-n3nnc(-c4cc(OC)c(OC)cc4NC(=O)c4cccc(F)c4)n3)cc1)CC2 [Example 16, N-[2-(2-{4-[2-(6,7-dimethoxy-3,4-dihydro-1H-isoquinolin-2-yl)-ethyl]-phenyl}-2H-tetrazol-5-yl)-4,5-dimethoxy-phenyl]-3-fluoro-benzamide] |  |  |  | 6.7
